Species: Rattus norvegicus
Assay: Open TG-GATES - Regimen: Daily Repeat
Assay type: toxicity, organism-based, Sprague-Dawley
Set-up: regimen Daily Repeat, gender Male, age 6 weeks
Conditions: in vivo, po, route gavage; for KIDNEY_L / KIDNEY_R / KIDNEY_TOTAL: tissue Kidney; for LIVER: tissue Liver; for ALP / AST / BUN / CRE / Ca / Cl / DBIL / GLC / IP / LDH / Na / PL / RALB / TBIL / TC / TG / TP / gamma-GTP: tissue Plasma
[1] = 10 mg/kg, 72 h, tissue Blood, dose level Low, time 3 day
[2] = 10 mg/kg, 72 h, dose level Low, time 3 day
[3] = 10 mg/kg, […], dose level Low, time 7 day
[4] = 10 mg/kg, […], dose level Low, time 14 day
[5] = 10 mg/kg, […], dose level Low, time 28 day
[6] = 10 mg/kg, […], tissue Blood, dose level Low, time 7 day
[7] = 10 mg/kg, […], tissue Blood, dose level Low, time 14 day
[8] = 10 mg/kg, […], tissue Blood, dose level Low, time 28 day

CC(=O)N1CCN(c2ccc(OCC3COC(Cn4ccnc4)(c4ccc(Cl)cc4Cl)O3)cc2)CC1 (stereo unspecified) [KETOCONAZOLE]
APTT [1]: 19.5 s
Bas [1]: 0%
Eos [1]: 0.8%
Fbg [1]: 308.2 mg/dL
Hb [1]: 12.9 g/dL
Ht [1]: 37.7%
Lym [1]: 82.6%
MCH [1]: 21.8 pg
MCV [1]: 64 fL
Mono [1]: 2%
Neu [1]: 13.6%
PT [1]: 16.3 s
Plat [1]: 122.8 x10_4/uL
RBC [1]: 589.4 x10_4/ul
Ret [1]: 6.6%
WBC [1]: 82 x10_2/uL
KIDNEY_L [2]: 1 g
KIDNEY_R [2]: 1 g
KIDNEY_TOTAL [2]: 2.1 g
LIVER [2]: 11.3 g
ALP [2]: 1629.2 IU/L
AST [2]: 75 IU/L
BUN [2]: 18.2 mg/dL
CRE [2]: 0.2 mg/dL
Ca [2]: 11 mg/dL
Cl [2]: 106.6 meq/L
DBIL [2]: 0 mg/dL
GLC [2]: 184.8 mg/dL
IP [2]: 6.6 mg/dL
LDH [2]: 226 IU/L
Na [2]: 140.8 meq/L
PL [2]: 152.6 mg/dL
RALB [2]: 3 g/dL
TBIL [2]: 0.006 mg/dL
TC [2]: 78 mg/dL
TG [2]: 100.6 mg/dL
TP [2]: 5.7 g/dL
gamma-GTP [2]: 1 IU/L
TERMINAL_BW [3]: 260.1 g
TERMINAL_BW [4]: 306.4 g
TERMINAL_BW [5]: 374.4 g
APTT [6]: 21.2 s
Bas [6]: 0%
Eos [6]: 1.2%
Fbg [6]: 311 mg/dL
Hb [6]: 13.6 g/dL
Ht [6]: 40.3%
Lym [6]: 80%
MCH [6]: 21 pg
MCV [6]: 62.2 fL
Mono [6]: 2.4%
Neu [6]: 15.6%
PT [6]: 16.2 s
Plat [6]: 111.8 x10_4/uL
RBC [6]: 648.6 x10_4/ul
Ret [6]: 5.4%
WBC [6]: 117 x10_2/uL
APTT [7]: 21.3 s
Bas [7]: 0%
Eos [7]: 0.8%
Fbg [7]: 308.2 mg/dL
Hb [7]: 13.6 g/dL
Ht [7]: 40.2%
Lym [7]: 81.6%
MCH [7]: 20.3 pg
MCHC [7]: 33.8%
MCV [7]: 60.1 fL
Mono [7]: 1.2%
Neu [7]: 14.6%
PT [7]: 15.9 s
Plat [7]: 118 x10_4/uL
RBC [7]: 669.2 x10_4/ul
Ret [7]: 4.4%
WBC [7]: 116.4 x10_2/uL
APTT [8]: 23.8 s
Bas [8]: 0%
Eos [8]: 1%
Fbg [8]: 308.8 mg/dL
Hb [8]: 14.8 g/dL
Ht [8]: 43.5%
Lym [8]: 80.8%
MCV [8]: 56.9 fL
Mono [8]: 1.8%
Neu [8]: 15.2%
PT [8]: 16.8 s
Plat [8]: 108.8 x10_4/uL
RBC [8]: 764.6 x10_4/ul
Ret [8]: 2.6%
WBC [8]: 109.3 x10_2/uL
KIDNEY_L [3]: 1.1 g
KIDNEY_R [3]: 1.1 g
KIDNEY_TOTAL [3]: 2.1 g
KIDNEY_L [4]: 1.3 g
KIDNEY_R [4]: 1.3 g
KIDNEY_TOTAL [4]: 2.5 g
KIDNEY_L [5]: 1.4 g
KIDNEY_R [5]: 1.4 g
KIDNEY_TOTAL [5]: 2.8 g
LIVER [3]: 12.1 g
LIVER [4]: 13.7 g
LIVER [5]: 15.6 g
ALP [3]: 1544.4 IU/L
AST [3]: 68.4 IU/L
BUN [3]: 19 mg/dL
CRE [3]: 0.2 mg/dL
Ca [3]: 10.6 mg/dL
Cl [3]: 107 meq/L
DBIL [3]: 0 mg/dL
GLC [3]: 193 mg/dL
IP [3]: 6.9 mg/dL
LDH [3]: 228.6 IU/L
Na [3]: 142 meq/L
PL [3]: 144 mg/dL
RALB [3]: 3 g/dL
TBIL [3]: 0.004 mg/dL
TC [3]: 71.6 mg/dL
TG [3]: 120.2 mg/dL
TP [3]: 5.7 g/dL
gamma-GTP [3]: 1.2 IU/L
ALP [4]: 1416.2 IU/L
AST [4]: 67.6 IU/L
BUN [4]: 17.6 mg/dL
CRE [4]: 0.2 mg/dL
Ca [4]: 10.6 mg/dL
Cl [4]: 107 meq/L
DBIL [4]: 0 mg/dL
GLC [4]: 182.2 mg/dL
IP [4]: 6.4 mg/dL
LDH [4]: 187.6 IU/L
Na [4]: 143 meq/L
PL [4]: 155.2 mg/dL
RALB [4]: 3.1 g/dL
TBIL [4]: 0.004 mg/dL
TC [4]: 77.8 mg/dL
TP [4]: 5.8 g/dL
gamma-GTP [4]: 1 IU/L
ALP [5]: 1283.8 IU/L
AST [5]: 59.2 IU/L
BUN [5]: 17.8 mg/dL
CRE [5]: 0.2 mg/dL
Ca [5]: 10.4 mg/dL
Cl [5]: 107.6 meq/L
DBIL [5]: 0 mg/dL
GLC [5]: 182.4 mg/dL
IP [5]: 5.4 mg/dL
LDH [5]: 138.4 IU/L
Na [5]: 143 meq/L
PL [5]: 140.6 mg/dL
RALB [5]: 3.2 g/dL
TBIL [5]: 0.004 mg/dL
TC [5]: 69.8 mg/dL
TG [5]: 121.2 mg/dL
TP [5]: 6.1 g/dL
gamma-GTP [5]: 1.2 IU/L
TERMINAL_BW (30 mg/kg, 72 h, dose level Middle, time 3 day): 228.5 g
APTT (30 mg/kg, 72 h, tissue Blood, dose level Middle, time 3 day): 20.7 s

From ChEMBL document CHEMBL3885861, “Open TG-GATES”
